From US20230399298A1 (priority 2020, published 2023) come the findings set out here.

Data set [1] is described as follows: Raw material harsh stability comparison test (60° C., HPLC). Format: physicochemical. The procedure: (§1) The HPLC conditions used in the present disclosure were as follows, and the purity of donepezil ether palmitate hydrochloride was measured. • 1) detector: ultraviolet absorption photometer (measurement wavelength: 276 nm) • 2) column: YMC-Pack Pro C18 (4.6×250 mm, 5 μm) • 3) mobile phase A: Solution obtained by dissolving 1.88 g of sodium 1-hexanesulfonate in 1000 mL of purified water, and then adding 1.0 mL of phosphoric acid thereto, wherein each amount of reaction substances was accurately weighed. • 4) mobile phase B: acetonitrile
Experiments were conducted to evaluate the raw material harsh stability over time of donepezil ether palmitate (DEP) and donepezil ether palmitate hydrochloride (DEP HCl).
Specifically, in the experiments, each compound was stored under a condition of 60° C., and the chemical stability thereof was analyzed by HPLC (purity and increased amount of related substances).

A short description of data set [2]: Formulation stability comparison test (suspension in benzyl benzoate and castor oil, 60° C. and 80° C., HPLC). Format: physicochemical. The procedure:
as §1
Experiments were conducted to evaluate the formulation stability over time of donepezil ether palmitate (DEP) and donepezil ether palmitate hydrochloride (DEP HCl).
Specifically, each of DEP and DEP HCl was mixed with benzyl benzoate and castor oil to prepare a suspension, and then stored at 60° C. and 80° C. The chemical stability was analyzed by HPLC (purity and increased amount of related substances), and results thereof are shown in Table 4.

The nature of data set [3]: Raw material accelerated stability comparison test (40° C., RH 75%, light-shielding seal, HPLC). Format: physicochemical. The procedure:
as §1
accelerated stability over time of donepezil ether palmitate (DEP) and donepezil ether palmitate hydrochloride (DEP HCl).
Specifically, in the experiments, each compound was stored in a light-shielding seal under accelerated conditions (40° C., RH 75%), and the chemical stability thereof was analyzed by HPLC (purity and increased amount of related substances).

By melting point is commonly meant the temperature of the solid-liquid transition. With `CCCCCCCCCCCCCCOCC(=O)OC1=C(CC2CCN(Cc3ccccc3)CC2)Cc2cc(OC)c(OC)cc21` [DEP, 2-((1-benzylpiperidin-4-yl)methyl)-5,6-dimethoxy-1H-inden-3-yl 2-(tetradecyloxy)acetate], the melting point was found to be 55.1 °C. The “purity decreased by” value in data set [1] (2nd week versus initial) is “about 18.60%”. In data set [1] (Day 1), this compound had a PT impurity of 1.61% and a Purity of 95.44%. In data set [1] (Day 3), the PT impurity was determined as 3.33% and the Purity turned out to be 92.05%. Further, the Purity in data set [1] (Initial) turned out to be 99.76%. Also, in data set [1] (Week 2), the PT impurity came to 4.39% and the Purity turned out to be 81.16%. The same compound came in with a Purity in data set [2] (Day 1 at 80° C.) of 97.96%. This compound also displayed a Purity in data set [2] (Initial) of 99.79%. In addition, in data set [2] (Week 1 at 60° C.), the Purity is on record as 97.54%. In data set [3] (6th month versus initial), the “purity decreased by” value is recorded as “about 2.47%”. Besides, in data set [3] (Initial), the PT impurity is 0.02% and the Purity amounted to 99.22%. Also, in data set [3] (Month 1), the PT impurity was 0.04% and the Purity was determined as 99.05%. In data set [3] (Month 3), the PT impurity was 0.08% and the Purity is given as 98.65%. In data set [3] (Month 6), this compound yielded a PT impurity of 0.13% and a Purity of 96.75%.
